Earlier results, collected in patent US20250334554A1, “ANALYTICAL METHOD FOR QUANTIFYING SUCRALOSE-6-ACETATE CONTENT” (Avazyme, Inc., priority 2024, published 2025).
Peptide text beside a SMILES is read from it.

Tests used:
[1] = Schiffman et al. 2023
humans = settings: 2023, Riboli et al.

| Structure (SMILES) | consumption level at which may be genotoxic [1] | IARC carcinogenicity classification (humans) |
| --- | --- | --- |
| CC(=O)OC[C@H]1O[C@H](O[C@]2(CCl)O[C@H](CCl)[C@@H](O)[C@@H]2O)[C@H](O)[C@@H](O)[C@H]1Cl [sucralose-6-acetate] | 0.15 µg/day | – |
| COC(=O)[C@H](Cc1ccccc1)NC(=O)[C@@H](N)CC(=O)O [aspartame] (H-Asp-Phe-OMe) | – | possibly carcinogenic to humans (Group 2B) |
